According to PMC11189555, “Aryl amino acetamides prevent Plasmodium falciparum ring development via targeting the lipid-transfer protein PfSTART1” (Nature Communications, 2024):

System: SLI-N330K parasites
Assay: Growth inhibition assay (72 h, LDH activity)
Assay type: cell-based, Plasmodium falciparum
Description: Parasite growth assays with inhibitory compounds were performed as per[11] and are fully described in the Supplementary Information.
Molecular biology and transfection of P. falciparum: Selection Linked Integration […]
To introduce the PfSTART1 mutations, the second half of the coding sequence of pfstart1 (PF3D7_0104200), was recodonised without introns to the bias of Saccharomyces cerevisiae containing either WT, N309K or N330K mutations, and synthesised as gBlock fragments (Integrated DNA Technologies). The first 819 bp of the 5′ native sequence of pfstart1 was amplified from gDNA, to form the 5’ homology block (5’ HB). The 3′ recodonised gBlock fragment comprising of the last 552 bp of either the WT, N309K or N330K pfstart1 to form the ‘recodon’ block (primers listed in Table S2). The 5’ HB and recodon products were sewn together by overlapping PCR to reconstitute the full coding sequence of pfstart1. These blocks (WT/N309K/N330K) were digested with BglII/PstI, and inserted into the parasite vector p-HA-2A-Neo-glmS
1. This plasmid contains an in -frame haemagglutinin (HA) epitope for protein identification and a P2A peptide (2A) to skip continuous peptide bond synthesis of a downstream neomycin resistance gene ( NeoR).
Parasites containing the transfected DNA were selected using 2.5 nM WR99210 (Jacobus). To select for parasites in which single crossover integration had occurred into the pfstart1 locus, parasites were treated with 400 μg/mL G418 (geniticin, Sigma Aldrich) for 14 days: only parasites that have integrated the construct into their genome expressed the neomycin resistance gene together with the PfSTART1 protein.
Parasite lines were cloned using limiting dilution. These clones were then tested on Western Blot (for correct HA-tagging and protein size), and correct integration and sequence were tested by PCR analysis: PCR on the gDNA was conducted using the primers START_5’UTR.F and START_Seq.R (Table S2). […]
Growth inhibition assays. Synchronised ring-stage parasites (0.3-0.6% parasitemia, 2% haematocrit) were grown for 72 h in a serial-dilution of the compound under […]
and compound 4. Note that M-833 was first purchased from MolPort (MolPort -002-267-916) then made in-house at WEHI: the differences observed in EC50s across experiments are attributed to the different batches of M -833. For some experiments, 0, 0.25 or 2.5 mM of glucosamine (GlcN) was also added. Experiments were set up in technical duplicates or triplicates. Following a freeze -thaw cycle, lactate dehydrogenase (LDH) activity was assessed as an indicator of parasite growt h 5. 30 μL of parasite culture was incubated for 30 min in the dark with 75 μL Malstat mixture (0.1 M Tris pH 9.0, 20 g/L lactic acid, pH 7.5, 0.2% Triton-X100, 0.5 g/L acetylpyridine adenine dinucleotide (APAD, Sigma), 200 μg/mL nitroblue tetrazolium (NBT; Sigma), 1 μg/mL phenozine ethosulfate (PES; Sigma)). Absorbance was then measured at 650 nm, transformed using the formula below, plotted against the logarithm of the concentrations, and a non-linear regression (log(inhibitor) vs. response, variable slope) was calculated using GraphPad Prism to assess the half-inhibitory […]
Growth inhibition % = (1 − average(sample)− average(uRBC)) ∗ 100 […]
The DMSO samples were also used to assess growth of parasite in the presence of 0.25 and 2.5 mM GlcN (normalised by DMSO in 0 mM GlcN).
Egress, invasion & recovery assay. To measure egress, invasion and follow up recovery in the presence of different compounds, we adapted the method developed in6, using Hyp1-Nluc parasites7. These parasites episomally express the exported PEXEL protein Hyp1 (PF3D7_0113300) tagged with a NanoLuc luciferase (NLuc) and were selected with 2.5 nM WR99210 (Jacobus). Highly synchronised schizonts were obtained using ML10 (LifeArc) and sorbitol synchronisation, and Percoll-purified (the culture was gently layered over 67% Percoll (Cytiva) in RPMI, and centrifuged for 15 min at 1500 g and the schizont layer was collected and washed). […]

**Q.** For `Cc1cc(Cl)c(S(=O)(=O)N2CCCC2)cc1OCC(=O)NC1CCCCC1` [M-833], which sample/DMSO (0.00152416 uM M-833, START(N330K), 0 mM GlcN, biological replicate 2) is on record?
**A.** 1.655

**Q.** What about the sample/DMSO (0.00152416 uM M-833, START(N330K), 0.25 mM GlcN, biological replicate 1) of the same compound?
**A.** -2.909

**Q.** And the sample/DMSO (0.00152416 uM M-833, START(N330K), 0.25 mM GlcN, biological replicate 2)?
**A.** 8.825

**Q.** What about the sample/DMSO (0.00152416 uM M-833, START(N330K), 2.5 mM GlcN, biological replicate 1) of the same compound?
**A.** 11.1758

**Q.** What about the sample/DMSO (0.00457247 uM M-833, START(N330K), 0 mM GlcN, biological replicate 1) of the same compound?
**A.** 3.2212

**Q.** What about the sample/DMSO (0.00457247 uM M-833, START(N330K), 0 mM GlcN, biological replicate 2) of the same compound?
**A.** 9.585

**Q.** And the sample/DMSO (0.00457247 uM M-833, START(N330K), 0 mM GlcN, biological replicate 3)?
**A.** 4.929

**Q.** What about the sample/DMSO (0.00457247 uM M-833, START(N330K), 0 mM GlcN, biological replicate 4) of the same compound?
**A.** -5.471

**Q.** And the sample/DMSO (0.00457247 uM M-833, START(N330K), 0.25 mM GlcN, biological replicate 1)?
**A.** 0.8993

**Q.** And the sample/DMSO (0.00457247 uM M-833, START(N330K), 0.25 mM GlcN, biological replicate 2)?
**A.** 9.092

**Q.** What about the sample/DMSO (0.00457247 uM M-833, START(N330K), 0.25 mM GlcN, biological replicate 3) of the same compound?
**A.** -0.2009

**Q.** What about the sample/DMSO (0.00457247 uM M-833, START(N330K), 0.25 mM GlcN, biological replicate 4) of the same compound?
**A.** -11.7886

**Q.** And the sample/DMSO (0.00457247 uM M-833, START(N330K), 2.5 mM GlcN, biological replicate 1)?
**A.** 14.0279

**Q.** And the sample/DMSO (0.00457247 uM M-833, START(N330K), 2.5 mM GlcN, biological replicate 2)?
**A.** 17.9639

**Q.** What about the sample/DMSO (0.00457247 uM M-833, START(N330K), 2.5 mM GlcN, biological replicate 3) of the same compound?
**A.** -5.165

**Q.** And the sample/DMSO (0.00457247 uM M-833, START(N330K), 2.5 mM GlcN, biological replicate 4)?
**A.** -8.571

**Q.** What about the sample/DMSO (0.0137174 uM M-833, START(N330K), 0 mM GlcN, biological replicate 1) of the same compound?
**A.** 7.141

**Q.** What about the sample/DMSO (0.0137174 uM M-833, START(N330K), 0 mM GlcN, biological replicate 2) of the same compound?
**A.** 7.124

**Q.** And the sample/DMSO (0.0137174 uM M-833, START(N330K), 0 mM GlcN, biological replicate 3)?
**A.** -3.262

**Q.** And the sample/DMSO (0.0137174 uM M-833, START(N330K), 0 mM GlcN, biological replicate 4)?
**A.** 6.3139

**Q.** And the sample/DMSO (0.0137174 uM M-833, START(N330K), 0.25 mM GlcN, biological replicate 1)?
**A.** 1.512

**Q.** And the sample/DMSO (0.0137174 uM M-833, START(N330K), 0.25 mM GlcN, biological replicate 2)?
**A.** 8.325

**Q.** And the sample/DMSO (0.0137174 uM M-833, START(N330K), 0.25 mM GlcN, biological replicate 3)?
**A.** 2.478

**Q.** And the sample/DMSO (0.0137174 uM M-833, START(N330K), 0.25 mM GlcN, biological replicate 4)?
**A.** 0

**Q.** What about the sample/DMSO (0.0137174 uM M-833, START(N330K), 2.5 mM GlcN, biological replicate 1) of the same compound?
**A.** 15.7451

**Q.** And the sample/DMSO (0.0137174 uM M-833, START(N330K), 2.5 mM GlcN, biological replicate 2)?
**A.** 11.3968

**Q.** And the sample/DMSO (0.0137174 uM M-833, START(N330K), 2.5 mM GlcN, biological replicate 3)?
**A.** -4.719

**Q.** What about the sample/DMSO (0.0137174 uM M-833, START(N330K), 2.5 mM GlcN, biological replicate 4) of the same compound?
**A.** -3.372

**Q.** And the sample/DMSO (0.0411523 uM M-833, START(N330K), 0 mM GlcN, biological replicate 1)?
**A.** 8.934

**Q.** What about the sample/DMSO (0.0411523 uM M-833, START(N330K), 0 mM GlcN, biological replicate 2) of the same compound?
**A.** 2.634

**Q.** And the sample/DMSO (0.0411523 uM M-833, START(N330K), 0 mM GlcN, biological replicate 3)?
**A.** 5.053

**Q.** What about the sample/DMSO (0.0411523 uM M-833, START(N330K), 0 mM GlcN, biological replicate 4) of the same compound?
**A.** -9.704

**Q.** What about the sample/DMSO (0.0411523 uM M-833, START(N330K), 0.25 mM GlcN, biological replicate 1) of the same compound?
**A.** 4.325

**Q.** What about the sample/DMSO (0.0411523 uM M-833, START(N330K), 0.25 mM GlcN, biological replicate 2) of the same compound?
**A.** -8.575

**Q.** And the sample/DMSO (0.0411523 uM M-833, START(N330K), 0.25 mM GlcN, biological replicate 3)?
**A.** -3.728

**Q.** And the sample/DMSO (0.0411523 uM M-833, START(N330K), 0.25 mM GlcN, biological replicate 4)?
**A.** -6.829

**Q.** What about the sample/DMSO (0.0411523 uM M-833, START(N330K), 2.5 mM GlcN, biological replicate 1) of the same compound?
**A.** 19.2666

**Q.** What about the sample/DMSO (0.0411523 uM M-833, START(N330K), 2.5 mM GlcN, biological replicate 2) of the same compound?
**A.** 13.1689

**Q.** And the sample/DMSO (0.0411523 uM M-833, START(N330K), 2.5 mM GlcN, biological replicate 3)?
**A.** 1.449

**Q.** And the sample/DMSO (0.0411523 uM M-833, START(N330K), 2.5 mM GlcN, biological replicate 4)?
**A.** -4.731

**Q.** And the sample/DMSO (0.123457 uM M-833, START(N330K), 0 mM GlcN, biological replicate 1)?
**A.** 11.901

**Q.** And the sample/DMSO (0.123457 uM M-833, START(N330K), 0 mM GlcN, biological replicate 2)?
**A.** 1.439

**Q.** What about the sample/DMSO (0.123457 uM M-833, START(N330K), 0 mM GlcN, biological replicate 3) of the same compound?
**A.** 5.443

**Q.** And the sample/DMSO (0.123457 uM M-833, START(N330K), 0 mM GlcN, biological replicate 4)?
**A.** 0.2691

**Q.** And the sample/DMSO (0.123457 uM M-833, START(N330K), 0.25 mM GlcN, biological replicate 1)?
**A.** 10.3138

**Q.** What about the sample/DMSO (0.123457 uM M-833, START(N330K), 0.25 mM GlcN, biological replicate 2) of the same compound?
**A.** 8.225

**Q.** And the sample/DMSO (0.123457 uM M-833, START(N330K), 0.25 mM GlcN, biological replicate 3)?
**A.** 5.9375
